# Patent US20130315829A1, “Compounds and Methods for Detecting Reactive Oxygen Species” (The Regents of the University of California, priority 2010, published 2013)
# What was measured:
# LNCaP-luc tumors = test: LNCaP-luc tumor xenograft model in SHO mice; format: in vivo, mouse
# Description: Animals. […] Mice were single or group-housed on a 12:12 light-dark cycle at 71° C. with free access to food and water.
# Tumor xenografts were created via i.p. injection of 3×10̂6 LNCaP-luc cells (100 μL, 1:1 PBS:Matrigel) in adult SHO mice. Tumor size was monitored by injecting 0.5-5 μmol D-lucifeirn (potassium salt, Gold Biotech., St. Louis, Mo.) in PBS. At least two weeks post-inoculation, tumors were injected with PCL-1, valeryl luciferin, testosterone propionate and N-acetylcysteine in various combinations to obtain the experimental data. On day one of the experiments, mice were injected with either PCL-1 (0.5 μmol) or valeryl luciferin (0.44 μmol) and imaged for 45 minutes using an IVIS spectrum. To determine the effect of testosterone on the tumors, the mice were injected with testosterone propionate (3 mg in 50 μL sesame oil) on day 2, followed 1.5 hours later by an injection of PCL-1 (0.5 μmol) or valeryl luciferin (0.44 μmol). Controls for the testosterone experiment were completed by injecting sesame oil (50 μL) on day 2, followed by the probe (0.5 μmol) or valeryl luciferin (0.44 μmol) 1.5 hours later. Additional experiments with N-acetylcysteine were completed by injecting the mice with testosterone propionate (3 mg in 50 μL sesame oil) on day 2, followed 1.5 hours later by injections of N-acetylcysteine (0.2 mg in 100 μL PBS) and PCL-1 (0.5 μmol). Day 2 injections were followed by 45 minutes of imaging.
# To study the stimulatory effects of testosterone and H2O2 production in prostate cancer in living animals, an intraperitoneal (i.p.) LNCaP-luc tumor xenograft model was developed in immunodeficient severe combined immunodeficiency hairless outbred (SHO) mice. To determine the baseline levels of H2O2 generation in the tumors as well as alterations in H2O2 fluxes over 24 hours, mice were injected with PCL-1 on Day 1 and with sesame oil, a vehicle used for all experiments, and PCL-1 after 24 hours on Day 2. […] The effects of testosterone (in the form of testosterone propionate) on H2O2 production were tested within the prostate cancer tumors. For these experiments, mice were injected with PCL-1 on Day 1 and the baseline signal was measured. On Day 2, the mice were injected either with testosterone propionate and then PCL-1, or empty vehicle and PCL-1.
# These experiments were performed by injecting mice on Day 2 with testosterone propionate, followed by serial application of NAC and PCL-1.
# FVB-luc mice [1] = test: In vivo antioxidant experiments in FVB-luc mice; design: species or system mouse; settings: NAC 0.2 mg i.p. then PCL-1 i.p., total photon flux over one hour
# Text: (§1) A Xenogen IVIS Spectrum instrument (Caliper Life Sciences, Hopkinton, Mass.) was used for bioluminescent imaging in all in vivo experiments. Phosphate Buffered Saline (PBS) was purchased from Thermo Fisher Scientific (Waltham, Mass.). Isoflurane was purchased from Phoenix Pharmaceuticals, Inc. (St. Joseph, Mo.), and sterile DMSO was purchased from Sigma-Aldrich (St. Louis, Mo.). Medical grade oxygen was purchased from Praxair (Danbury, Conn.).
# (§2) Animals. FVB-luc (FVB-Tg(CAG-luc,-GFP)L2G85Chco/J) mice were obtained from UC Davis, and SHO mice were obtained from Charles River Labs. Mice were single or group-housed on a 12:12 light-dark cycle at […] with free access to food and water. All studies were approved and performed according to the guidelines of the Animal Care and Use Committee of the University of California, Berkeley.
# Adult FVB-luc mice were anesthetized with isoflurane and injected with N-acetylcysteine (0.2 mg, 100 μL PBS, pH 7-8), followed immediately by an i.p. injection of PCL-1 (5 μmol, 50 μL 1:1 DMSO:PBS). Control mice were injected with 100 μL PBS and PCL-1.
# (§3) PCL-1 was applied to molecular imaging of H2O2 in living animals. Initial studies utilized FVB-luc mice that ubiquitously express firefly luciferase along with exogenous peroxide addition. […]
# [2] = In vitro ROS selectivity test with purified firefly luciferase: other ROS; format: biochemical; settings: PCL-1 5 μM, ROS 100 μM, 5-60 minutes, then firefly luciferase
# Description: (§4) Millipore water was used to prepare all aqueous solutions. Measurements for in vitro tests were performed in 50 mM Tris buffer, pH 7.4, with 10 mM MgCl2, 0.1 mM ZnCl2, and 2 mM ATP at 37° C. Bioluminescent measurements for in vitro tests were recorded using a Molecular Devices SpectraMax M2 plate reader (Sunnyvale, Calif.). Samples for bioluminescent measurements were placed in white, opaque 96-well plates, which were purchased from Corning Inc. (Corning, N.Y.). ATP was purchased from MP Biomedicals (Solon, Ohio), and luciferase was purchased from Promega (Madison, Wis.).
# (§5) Various reactive oxygen species (ROS, 100 μM) were administered to PCL-1 (5 μM) in the Tris buffer as follows. Hydrogen peroxide (H2O2), tert-butyl hydroperoxide (TBHP), and hypochlorite (OCl^−) were delivered from 30%, 70%, and 6.15% aqueous solutions, respectively. […]
# (§6) Initial experiments tested the ability of PCL-1 to detect H2O2 in a selective and concentration-dependent manner. […] PCL-1 was incubated with various ROS for 5-60 minutes followed by addition of firefly luciferase, and then light production was measured over 45 minutes to determine whether luciferin was produced during the ROS incubation period. The total normalized photon flux was calculated by dividing each total photon flux by the zero timepoint total photon flux for each run to allow a direct comparison between various ROS. […]
# LNCaP-luc cells [3] = test: Bioluminescence of LNCaP-luc cells with PCL-1 and exogenous H2O2; format: cell-based, human; settings: PCL-1 50 μM
# Description: A Xenogen IVIS Spectrum instrument (Caliper Life Sciences, Hopkinton, Mass.) was used for bioluminescent imaging in all ex vivo experiments. LNCaP-luc cells (kindly provided by Chris Contag, Stanford University) were cultured in Dulbecco's Modified Eagle Medium (DMEM) containing 10% Fetal Bovine Serum (FBS). Cells were split twice per week. Prior to assaying, cells were passed and plated (4×10^4 cells/well) in black 96-well plates with clear bottoms (Becton Dickinson and Company, Franklin Lakes, N.J.). Two days after being plated, once the cells were ca. 95% confluent, the medium was removed and PCL-1 (2.5% final DMSO concentration) and H2O2 (2.5-500 μM final concentrations) in DMEM (−FBS) were added. The plate was immediately imaged for 2 hours. For stimulation experiments, the cells (ca. 95 confluent) were incubated with paraquat (0 or 500 μM, 100 μL DMEM+10% FBS) for 24 hours prior to the addition of PCL-1 (50 μM) with or without catalase (1×10̂4 U/L).
# With data showing that PCL-1 is a selective and sensitive bioluminescent reporter for H2O2 in aqueous solution, this system was applied to imaging changes in H2O2 levels in cell culture. […] To achieve this goal, PCL-1 and H2O2 were added to LNCaP-luc cells stably transfected with the firefly luciferase gene. In the absence of H2O2, the bioluminescent signal from the cells was negligible. In contrast, addition of 2.5 to 500 μM H2O2 triggers a linear increase, up to 250 μM, in the total observed photon flux (FIG. 3). The 2.5 μM detection limit for H2O2 is well within estimated concentration ranges of endogenously produced H2O2 fluxes.
# Total photon flux, integrated over 2 h, from LNCaP-luc cells with PCL-1 (50 μM) and H2O2 (2.5-500 μM) in DMEM. All values show statistically significant differences (p<0.001) except between 250 and 500 μM H2O2. (b) Total photon flux, integrated over 2 h, from LNCaP-luc cells incubated with paraquat (0 or 500 μM) for 24 h, followed by addition of PCL-1 (50 μM)±catalase (1×10̂4 U/L). […]
# [4] = In vitro ROS selectivity test with purified firefly luciferase: H2O2; format: biochemical; settings: PCL-1 5 μM, H2O2 100 μM, over an hour, then firefly luciferase; light integrated over 45 minutes
# Description: as §4, §5, §6
# FVB-luc mice [5] = test: In vivo exogenous H2O2 experiments in FVB-luc mice; design: species or system mouse; settings: PCL-1 i.p. 0.5 μmol
# Text: as §1, §2
# Adult FVB-luc mice were anesthetized with isoflurane and injected (i.p.) with PCL-1 (0.5 μmol, 50 μL 1:1 DMSO:PBS), followed immediately by an i.p. injection of H2O2 (0.0375, 0.15, 0.6, and 2.4 μmol in 100 μL PBS). Control mice were injected with PCL-1 and 100 μL PBS.
# as §3
# LNCaP-luc cells [6] = test: Paraquat stimulation of endogenous H2O2 in LNCaP-luc cells, with or without catalase; format: cell-based, human
# Description: A Xenogen IVIS Spectrum instrument (Caliper Life Sciences, Hopkinton, Mass.) was used for bioluminescent imaging in all ex vivo experiments. […] Cells were split twice per week. Prior to assaying, cells were passed and plated (4×10^4 cells/well) in black 96-well plates with clear bottoms (Becton Dickinson and Company, Franklin Lakes, N.J.). Two days after being plated, once the cells were ca. 95% confluent, the medium was removed and PCL-1 (2.5% final DMSO concentration) and H2O2 (2.5-500 μM final concentrations) in DMEM (−FBS) were added. The plate was immediately imaged for 2 hours. For stimulation experiments, the cells (ca. 95 confluent) were incubated with paraquat (0 or 500 μM, 100 μL DMEM+10% FBS) for 24 hours prior to the addition of PCL-1 (50 μM) with or without catalase (1×10̂4 U/L).
# To determine whether PCL-1 could detect endogenously produced H2O2 in living cells, LNCaP-luc cells were incubated with 500 μM paraquat for 24 hours, as previous work establishes that paraquat triggers elevations in intracellular H2O2 through disruption of the mitochondrial electron transport chain. Following paraquat stimulation, the LNCaP-luc cells were loaded with PCL-1 and the subsequent bioluminescent signal was detected.
# Because luciferin is a cell-permeable small molecule, two possible modes of action for PCL-1 are (i) reaction of this probe with H2O2 in the extracellular medium followed by cellular uptake of the free luciferin product, or (ii) reaction of PCL-1 with intracellular H2O2 to generate luciferin within cells. To probe whether PCL-1 was reacting with H2O2 in the intra- or extracellular space, catalase was added as a cell-impermeable scavenger for extracellular H2O2 with paraquat stimulation.
molecule,measurement,setting,value
"CC(=O)N[C@@H](CS)C(=O)O [NAC, N-acetylcysteine]",bioluminescent signal in testosterone-stimulated animals after NAC treatment,"LNCaP-luc tumors; SHO mice with LNCaP-luc tumors, testosterone propionate 3 mg, then NAC 0.2 mg and PCL-1 0.5 μmol",reduction in bioluminescent signal in testosterone-stimulated animals back to baseline levels
same,bioluminescent signal of NAC-treated animals compared to vehicle control animals,FVB-luc mice [1],significantly reduced bioluminescent signal
"O=C(O)[C@H]1CSC(c2nc3ccc(OCc4ccc(B(O)O)cc4)cc3s2)=N1 [PCL-1, (S)-2-(6-(4-Boronobenzyloxy)benzo[d]thiazol-2-yl)-4,5-dihydrothiazole-4-carboxylic acid]",increase in bioluminescent signal on reaction with the other ROS,[2],little to no increase in signal
same,detection limit for H2O2,LNCaP-luc cells [3],2.5 µM
same,H2O2 concentration up to which total observed photon flux increases linearly,"LNCaP-luc cells [3]; H2O2 2.5 to 500 μM, integrated over 2 h",up to 250 μM
same,bioluminescent signal from the cells in the absence of H2O2,LNCaP-luc cells [3]; no H2O2,negligible
same,increase in bioluminescent signal (total normalized photon flux) on addition of H2O2,[4],approximately seven-fold
same,"bioluminescence of mice treated only with PCL-1, no added peroxide",FVB-luc mice [5],modest but measurable bioluminescence
same,integrated total photon flux as a function of the H2O2 concentration,"FVB-luc mice [5]; then H2O2 i.p., integrated over one hour",dose-dependent increase in signal
same,change in basal bioluminescent signal from Day 1 to Day 2,"LNCaP-luc tumors; SHO mice with LNCaP-luc tumors, PCL-1 0.5 μmol Day 1, sesame oil and PCL-1 Day 2",no change in basal bioluminescent signal
O=C(O)[C@H]1CSC(c2nc3ccc(O)cc3s2)=N1 [luciferin],time after injection at which the signal peak is reached,"LNCaP-luc tumors; LNCaP-luc cells, peak before first imaging timepoint",< 1 min
"C[n+]1ccc(-c2cc[n+](C)cc2)cc1 [paraquat, reference compound]",PCL-1 derived luminescence compared to unstimulated control cells,"LNCaP-luc cells [6]; 500 μM paraquat for 24 hours, then PCL-1 50 μM",patently higher
CCC(=O)O[C@H]1CC[C@H]2[C@@H]3CCC4=CC(=O)CC[C@]4(C)[C@H]3CC[C@]12C [testosterone propionate],increase in total photon flux compared to vehicle control mice,"LNCaP-luc tumors; SHO mice with LNCaP-luc tumors, testosterone propionate 3 mg in sesame oil, PCL-1 0.5 μmol 1.5 h later",approximately 41%
catalase,bioluminescence signal with catalase plus paraquat compared to paraquat alone,"LNCaP-luc cells [6]; 500 μM paraquat 24 h, PCL-1 50 μM, catalase 1×10^4 U/L",decrease in bioluminescence signal
same,PCL-1 bioluminescence of catalase-treated cells compared to untreated specimens,"LNCaP-luc cells [6]; no paraquat, PCL-1 50 μM, catalase 1×10^4 U/L",reduces the level of PCL-1 bioluminescence
